The results in this text go back to patent US12569686B2, “Chronically implantable systems and methods for affecting cardiac contractility and/or relaxation” (Cardionomix, Inc., priority 2020, dated 2026).

This assay concerns normal, non-HF ovine model. The assay can be described thus: Change in ventricle contractility (max dP/dt as surrogate) and beat-by-beat correlation of right and left ventricle contractility after an injection. It counts as in vivo. The conditions noted are these: pressure max (dP/dt) used as surrogate for contractility, calcium at 5 mL. The source says:
The correlation was a heartbeat-by-heartbeat analysis. Pressure measurements, taken by a Millar catheter comprising a MEMS pressure sensor, in units of max (dP/dt) was used as a surrogate for contractility. The first change, a dobutamine injection, provided a very high contractility increase greater than 500%. The average correlation between right ventricle contractility and left ventricle contractility was very good at 0.91, where 1.00 is a perfect correlation. Accordingly, if a subject is given a dobutamine injection, measuring changes to right ventricle contractility can provide accurate information about changes to left ventricle contractility. The first change was repeated three times. The second change, calcium injection at 5 mL, provided a contractility increase of about 20%. […] The average correlation between right ventricle contractility and left ventricle contractility using a Millar (MEMS) sensor on a catheter was very good at 0.91. The average correlation between right ventricle contractility and left ventricle contractility using a fluid-filled lumen of a Swan-Ganz catheter in communication with an external pressure sensor was also very good at 0.87. […]

With calcium [Calcium Injection], the “Contractility % Increase” value is approximately 20%. For the setting “listed as calcium injection”, the “Contractility % Increase” value is “about 20%”.
